Test system: chicken embryonic stem cells
Assay: Titration kill curve: cES cells in culture exposed to puromycin or neomycin
Format: cell-based
Parameters: key to Morphology of cES cells: ES: ES cells are present.; diff: ES cells are differentiated.; gone: no morphologically recognizable cells are present
Description: In a preferred embodiment, the concentration of puromycin required for selecting transfected cells is calculated as a titration kill curve. Titration kill curves for chicken embryonic stem cells are established by exposing cells in culture to puromycin concentrations varying from 0.0 to 1.0 μg/ml for 10 days (Table 7) and neomycin concentrations varying from 0.0 to 200 μg/ml (Table 8). The medium is changed every 2 days and fresh puromycin or neomycin is added. […] Puromycin concentrations of 0.3-1.0 μg/ml are used for selection of the transfected cultures. Neomycin concentrations over 40 μg/ml eliminated all cES cells within 7 days (Table 8).

COc1ccc(C[C@H](N)C(=O)N[C@H]2[C@@H](O)[C@H](n3cnc4c(N(C)C)ncnc43)O[C@@H]2CO)cc1 [Puromycin, puromycin]
Presence of ES cells in wells after exposure (0.3 μg/ml puromycin, 3 changes of medium with fresh puromycin over a six day period): absent from all wells
Morphology of cES cells (puromycin 0.1 μg/ml, day 1 under selection): ES
Morphology of cES cells (puromycin 0.1 μg/ml, day 2 under selection): ES
Morphology of cES cells (puromycin 0.1 μg/ml, day 3 under selection): ES
Morphology of cES cells (puromycin 0.1 μg/ml, day 4 under selection): ES
Morphology of cES cells (puromycin 0.1 μg/ml, day 5 under selection): ES
Morphology of cES cells (puromycin 0.1 μg/ml, day 6 under selection): ES
Morphology of cES cells (puromycin 0.1 μg/ml, day 7 under selection): ES
Morphology of cES cells (puromycin 0.1 μg/ml, day 8 under selection): ES
Morphology of cES cells (puromycin 0.1 μg/ml, day 9 under selection): ES
Morphology of cES cells (puromycin 0.1 μg/ml, day 10 under selection): ES
Morphology of cES cells (puromycin 0.2 μg/ml, day 1 under selection): ES
Morphology of cES cells (puromycin 0.2 μg/ml, day 2 under selection): ES
Morphology of cES cells (puromycin 0.2 μg/ml, day 3 under selection): ES
Morphology of cES cells (puromycin 0.2 μg/ml, day 4 under selection): ES
Morphology of cES cells (puromycin 0.2 μg/ml, day 5 under selection): ES
Morphology of cES cells (puromycin 0.2 μg/ml, day 6 under selection): ES
Morphology of cES cells (puromycin 0.2 μg/ml, day 7 under selection): ES
Morphology of cES cells (puromycin 0.2 μg/ml, day 8 under selection): ES
Morphology of cES cells (puromycin 0.2 μg/ml, day 9 under selection): ES
Morphology of cES cells (puromycin 0.2 μg/ml, day 10 under selection): ES
Morphology of cES cells (puromycin 0.25 μg/ml, day 1 under selection): ES
Morphology of cES cells (puromycin 0.25 μg/ml, day 2 under selection): ES
Morphology of cES cells (puromycin 0.25 μg/ml, day 3 under selection): ES
Morphology of cES cells (puromycin 0.25 μg/ml, day 4 under selection): ES
Morphology of cES cells (puromycin 0.25 μg/ml, day 5 under selection): ES
Morphology of cES cells (puromycin 0.25 μg/ml, day 6 under selection): diff
Morphology of cES cells (puromycin 0.25 μg/ml, day 7 under selection): diff
Morphology of cES cells (puromycin 0.3 μg/ml, day 1 under selection): ES
Morphology of cES cells (puromycin 0.3 μg/ml, day 2 under selection): ES
Morphology of cES cells (puromycin 0.3 μg/ml, day 3 under selection): diff
Morphology of cES cells (puromycin 0.3 μg/ml, day 6 under selection): gone
Morphology of cES cells (puromycin 0.3 μg/ml, day 7 under selection): gone
Morphology of cES cells (puromycin 0.3 μg/ml, day 8 under selection): gone
Morphology of cES cells (puromycin 0.3 μg/ml, day 9 under selection): gone
Morphology of cES cells (puromycin 0.3 μg/ml, day 10 under selection): gone
Morphology of cES cells (puromycin 0.4 μg/ml, day 1 under selection): ES
Morphology of cES cells (puromycin 0.4 μg/ml, day 2 under selection): diff
Morphology of cES cells (puromycin 0.4 μg/ml, day 3 under selection): gone
Morphology of cES cells (puromycin 0.4 μg/ml, day 4 under selection): gone
Morphology of cES cells (puromycin 0.4 μg/ml, day 5 under selection): gone
Morphology of cES cells (puromycin 0.4 μg/ml, day 6 under selection): gone
Morphology of cES cells (puromycin 0.4 μg/ml, day 7 under selection): gone
Morphology of cES cells (puromycin 0.4 μg/ml, day 8 under selection): gone
Morphology of cES cells (puromycin 0.4 μg/ml, day 9 under selection): gone
Morphology of cES cells (puromycin 0.4 μg/ml, day 10 under selection): gone
Morphology of cES cells (puromycin 0.5 μg/ml, day 1 under selection): diff
Morphology of cES cells (puromycin 0.5 μg/ml, day 2 under selection): gone
Morphology of cES cells (puromycin 0.5 μg/ml, day 3 under selection): gone
Morphology of cES cells (puromycin 0.5 μg/ml, day 4 under selection): gone
Morphology of cES cells (puromycin 0.5 μg/ml, day 5 under selection): gone
Morphology of cES cells (puromycin 0.5 μg/ml, day 6 under selection): gone
Morphology of cES cells (puromycin 0.5 μg/ml, day 7 under selection): gone
Morphology of cES cells (puromycin 0.5 μg/ml, day 8 under selection): gone
Morphology of cES cells (puromycin 0.5 μg/ml, day 9 under selection): gone
Morphology of cES cells (puromycin 0.5 μg/ml, day 10 under selection): gone
Morphology of cES cells (puromycin 0.6 μg/ml, day 1 under selection): diff
Morphology of cES cells (puromycin 0.6 μg/ml, day 2 under selection): gone
Morphology of cES cells (puromycin 0.6 μg/ml, day 3 under selection): gone
Morphology of cES cells (puromycin 0.6 μg/ml, day 4 under selection): gone
Morphology of cES cells (puromycin 0.6 μg/ml, day 5 under selection): gone
Morphology of cES cells (puromycin 0.6 μg/ml, day 6 under selection): gone
Morphology of cES cells (puromycin 0.6 μg/ml, day 7 under selection): gone
Morphology of cES cells (puromycin 0.6 μg/ml, day 8 under selection): gone
Morphology of cES cells (puromycin 0.6 μg/ml, day 9 under selection): gone
Morphology of cES cells (puromycin 0.6 μg/ml, day 10 under selection): gone
Morphology of cES cells (puromycin 0.7 μg/ml, day 1 under selection): diff
Morphology of cES cells (puromycin 0.7 μg/ml, day 2 under selection): gone
Morphology of cES cells (puromycin 0.7 μg/ml, day 3 under selection): gone
Morphology of cES cells (puromycin 0.7 μg/ml, day 4 under selection): gone
Morphology of cES cells (puromycin 0.7 μg/ml, day 5 under selection): gone
Morphology of cES cells (puromycin 0.7 μg/ml, day 6 under selection): gone
Morphology of cES cells (puromycin 0.7 μg/ml, day 7 under selection): gone
Morphology of cES cells (puromycin 0.7 μg/ml, day 8 under selection): gone
Morphology of cES cells (puromycin 0.7 μg/ml, day 9 under selection): gone
Morphology of cES cells (puromycin 0.7 μg/ml, day 10 under selection): gone
Morphology of cES cells (puromycin 0.8 μg/ml, day 1 under selection): gone
Morphology of cES cells (puromycin 0.8 μg/ml, day 2 under selection): gone
Morphology of cES cells (puromycin 0.8 μg/ml, day 3 under selection): gone
Morphology of cES cells (puromycin 0.8 μg/ml, day 4 under selection): gone
Morphology of cES cells (puromycin 0.8 μg/ml, day 5 under selection): gone
Morphology of cES cells (puromycin 0.8 μg/ml, day 6 under selection): gone
Morphology of cES cells (puromycin 0.8 μg/ml, day 7 under selection): gone
Morphology of cES cells (puromycin 0.8 μg/ml, day 8 under selection): gone
Morphology of cES cells (puromycin 0.8 μg/ml, day 9 under selection): gone
Morphology of cES cells (puromycin 0.8 μg/ml, day 10 under selection): gone

Source: patent US20140155580A1, “TRANSGENIC AVES PRODUCING HUMAN POLYCLONAL ANTIBODIES” (Synageva BioPharma Corp., priority 2003, published 2014)
